Experimental data as given in ChEMBL document CHEMBL1201862, “PubChem BioAssay data set” (2004).
Calls of active or inactive are those of the source.

What was measured:
[1] = cytotoxicity in HEK-293T cells, dose response, cytotoxicity control for BCR NF-kB inhibitor project, luminescence, B-cell screen hits (AID 489021); assay type: functional, cell-based;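 further: HEK-293T cells carrying an NF-kB luciferase reporter; cells exposed to compound for about 14 hours before viability readout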
[2] = molecular target: T1, Apoptotic protease-activating factor 1 (Homo sapiens, UniProt O14727); assay type: functional
T1 sequence (O14727 whole entry): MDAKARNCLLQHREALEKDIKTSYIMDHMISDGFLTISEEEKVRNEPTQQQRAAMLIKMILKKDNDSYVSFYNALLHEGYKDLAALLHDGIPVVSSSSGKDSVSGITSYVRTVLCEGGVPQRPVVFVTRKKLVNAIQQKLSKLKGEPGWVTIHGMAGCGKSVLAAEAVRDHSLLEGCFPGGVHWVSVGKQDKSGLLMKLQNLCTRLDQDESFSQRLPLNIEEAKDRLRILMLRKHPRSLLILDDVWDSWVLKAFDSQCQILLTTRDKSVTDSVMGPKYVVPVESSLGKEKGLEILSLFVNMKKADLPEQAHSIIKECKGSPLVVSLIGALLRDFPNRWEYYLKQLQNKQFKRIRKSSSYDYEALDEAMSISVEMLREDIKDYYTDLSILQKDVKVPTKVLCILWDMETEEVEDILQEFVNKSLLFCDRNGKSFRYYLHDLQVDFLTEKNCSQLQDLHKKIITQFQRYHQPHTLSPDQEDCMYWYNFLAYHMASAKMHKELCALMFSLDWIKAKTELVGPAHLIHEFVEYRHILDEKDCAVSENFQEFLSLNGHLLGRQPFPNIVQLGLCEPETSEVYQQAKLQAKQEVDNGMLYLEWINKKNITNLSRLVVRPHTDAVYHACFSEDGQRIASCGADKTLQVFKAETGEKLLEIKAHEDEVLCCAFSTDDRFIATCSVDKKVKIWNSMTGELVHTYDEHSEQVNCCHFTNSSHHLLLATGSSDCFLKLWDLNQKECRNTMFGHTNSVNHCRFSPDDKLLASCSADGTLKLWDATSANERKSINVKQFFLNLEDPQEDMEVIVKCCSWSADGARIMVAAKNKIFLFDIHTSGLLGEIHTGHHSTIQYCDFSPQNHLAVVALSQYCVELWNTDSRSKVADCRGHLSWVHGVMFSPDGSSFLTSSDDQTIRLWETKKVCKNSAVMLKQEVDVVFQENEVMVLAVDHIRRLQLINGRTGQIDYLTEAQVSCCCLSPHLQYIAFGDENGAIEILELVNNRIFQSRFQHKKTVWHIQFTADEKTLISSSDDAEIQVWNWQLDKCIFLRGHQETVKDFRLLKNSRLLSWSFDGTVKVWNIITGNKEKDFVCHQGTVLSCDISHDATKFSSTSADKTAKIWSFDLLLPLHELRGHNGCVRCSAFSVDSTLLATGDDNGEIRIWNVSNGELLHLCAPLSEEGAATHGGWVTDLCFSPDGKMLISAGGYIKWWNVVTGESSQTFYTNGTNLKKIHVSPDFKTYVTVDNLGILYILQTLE

Vero = assay: cells; assay type: functional; conditions: Chlorocebus sabaeus
[3] = inhibitors of firefly luciferase expression or activity, dose response, H4 neuroglioma cells, luminescence (AID 1990); assay type: functional, cell-based
HEK293 [4] = assay: NOD1 signaling inhibitors, primary screen, cell-based, luminescence, uHTS (AID 1578); assay type: functional; conditions: Homo sapiens
HEK293 [5] = assay: cells; assay type: functional, cell-based; conditions: Homo sapiens
[6] = Luminescence Cell-Based Dose Response HTS to Identify Inhibitors of 5'UTR Stem-Loop Driven Prion Protein mRNA Translation in H4 Neuroglioblastoma Cells. [Related pubchem assays: 1827 (Project Summary), 1813 (Primary HTS)]; assay type: functional
[7] = molecular target: T2, Heat shock factor protein 1 (Mus musculus, UniProt P38532); assay: inhibition of MG132-induced HSE-luciferase signal, confirmation, cell-based, NIH3T3, luminescence, dose retest (AID 2382); assay type: functional;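 further: NIH3T3 fibroblasts with HSF1-driven luciferase reporter stressed by proteasome inhibitor MG132; luminescence from HSF1-driven luciferase expression after 8 hours of MG132 stress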
T2 sequence (P38532 whole entry): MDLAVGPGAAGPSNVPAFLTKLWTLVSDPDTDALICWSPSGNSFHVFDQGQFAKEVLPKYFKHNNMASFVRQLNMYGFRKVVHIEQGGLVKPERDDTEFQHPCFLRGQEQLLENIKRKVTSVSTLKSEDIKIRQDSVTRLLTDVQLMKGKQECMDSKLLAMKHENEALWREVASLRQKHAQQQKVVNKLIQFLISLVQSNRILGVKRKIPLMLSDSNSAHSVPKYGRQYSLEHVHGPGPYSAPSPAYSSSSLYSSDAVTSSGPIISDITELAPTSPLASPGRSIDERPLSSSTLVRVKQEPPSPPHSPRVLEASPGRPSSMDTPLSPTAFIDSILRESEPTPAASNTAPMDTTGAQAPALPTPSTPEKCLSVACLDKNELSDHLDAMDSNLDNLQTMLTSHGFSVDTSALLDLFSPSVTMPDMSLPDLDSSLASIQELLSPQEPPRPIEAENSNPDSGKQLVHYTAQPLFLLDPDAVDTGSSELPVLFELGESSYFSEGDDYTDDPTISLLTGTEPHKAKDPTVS

[8] = inhibitors of SNCA 5'UTR-driven reporter translation, confirmation, H4 neuroglioma cells, luminescence (AID 1988); assay type: functional, cell-based
HEK293 [9] = assay: cells; assay type: functional, cell-based; conditions: Homo sapiens; remark: listed apart in the source
[10] = molecular target: Nucleotide-binding oligomerization domain-containing protein 2 (Homo sapiens, UniProt Q9HC29); assay: NOD2 signaling inhibitors, cell-based, luminescence, uHTS, HEK293 (AID 1566); assay type: functional
HEK293 [11] = assay: NOD2 signaling inhibitors in MDP-stimulated cells, cell-based, uHTS, luminescence (AID 2001); assay type: functional; conditions: Homo sapiens
HEK293 [12] = assay: cells; assay type: functional, cell-based; conditions: Homo sapiens; remark: listed apart in the source
[13] = molecular target: DNA dC->dU-editing enzyme APOBEC-3A (Homo sapiens, UniProt P31941); assay: Dose Response confirmation of small molecule APOBEC3A DNA Deaminase Inhibitors via a fluorescence-based single-stranded DNA deaminase assay. [Related pubchem assays (depositor defined):AID493011, AID493024]; assay type: functional
[14] = molecular target: DNA dC->dU-editing enzyme APOBEC-3G (Homo sapiens, UniProt Q9HC16); assay type: functional;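 further: Dose-response counterscreen measuring inhibition of APOBEC3G DNA deaminase activity, run while confirming APOBEC3A inhibitors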
Estrogen receptor = molecular target: T3, Estrogen receptor (Homo sapiens, UniProt P03372);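 further: potency for inhibiting coactivator peptide recruitment to the receptor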
T3 sequence (P03372 whole entry): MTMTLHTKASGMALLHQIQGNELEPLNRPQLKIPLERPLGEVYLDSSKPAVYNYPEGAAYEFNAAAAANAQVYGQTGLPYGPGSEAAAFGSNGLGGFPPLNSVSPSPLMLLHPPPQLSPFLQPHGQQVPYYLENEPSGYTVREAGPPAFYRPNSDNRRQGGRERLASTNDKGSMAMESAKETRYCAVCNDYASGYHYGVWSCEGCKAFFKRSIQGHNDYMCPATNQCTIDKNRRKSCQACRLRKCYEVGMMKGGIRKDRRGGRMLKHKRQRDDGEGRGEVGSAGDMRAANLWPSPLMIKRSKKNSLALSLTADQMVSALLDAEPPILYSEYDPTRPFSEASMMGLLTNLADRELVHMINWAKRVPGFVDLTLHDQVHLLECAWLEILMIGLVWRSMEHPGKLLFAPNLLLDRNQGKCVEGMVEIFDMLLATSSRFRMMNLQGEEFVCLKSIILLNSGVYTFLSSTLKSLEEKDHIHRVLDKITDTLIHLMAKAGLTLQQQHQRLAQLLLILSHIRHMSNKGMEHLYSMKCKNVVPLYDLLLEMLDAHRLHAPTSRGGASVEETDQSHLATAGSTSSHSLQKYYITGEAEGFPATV

[15] = Luminescence Cell-Based Dose Retest to Confirm Inhibitors of Cancer Stem Cells. [Related pubchem assays (depositor defined):AID2717, AID2721]; assay type: functional; conditions: Homo sapiens
INS1 = assay: beta cell apoptosis inhibitors, cytokine rescue, dose response, luminescence, retest (AID 449756); assay type: functional, cell-based; conditions: Rattus norvegicus;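 further: cell death triggered by IL-1 beta plus TNF-alpha plus IFN-gamma mixture; protective hits raise ATP signal compared with cytokine alone wells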
[16] = cytotoxicity in HPDE-C7 cells, cell-based, fluorescence, HTS (AID 430); assay type: functional; conditions: Homo sapiens
[17] = cytotoxicity in KRAS-transformed pancreatic duct cells, primary screen, cell-based, fluorescence, HTS (AID 431); assay type: functional; conditions: Homo sapiens;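 further: cell line used: HPDE-C7K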
Aminopeptidase N = molecular target: T4, Aminopeptidase N (Plasmodium falciparum FcB1/Columbia, UniProt O96935); assay: P. falciparum M1AAP inhibitors, biochemical, fluorogenic H-Leu-NHMec substrate, 1536-well (AID 1445); design: species or system Plasmodium falciparum 3D7, 3D7
T4 sequence (O96935 whole entry): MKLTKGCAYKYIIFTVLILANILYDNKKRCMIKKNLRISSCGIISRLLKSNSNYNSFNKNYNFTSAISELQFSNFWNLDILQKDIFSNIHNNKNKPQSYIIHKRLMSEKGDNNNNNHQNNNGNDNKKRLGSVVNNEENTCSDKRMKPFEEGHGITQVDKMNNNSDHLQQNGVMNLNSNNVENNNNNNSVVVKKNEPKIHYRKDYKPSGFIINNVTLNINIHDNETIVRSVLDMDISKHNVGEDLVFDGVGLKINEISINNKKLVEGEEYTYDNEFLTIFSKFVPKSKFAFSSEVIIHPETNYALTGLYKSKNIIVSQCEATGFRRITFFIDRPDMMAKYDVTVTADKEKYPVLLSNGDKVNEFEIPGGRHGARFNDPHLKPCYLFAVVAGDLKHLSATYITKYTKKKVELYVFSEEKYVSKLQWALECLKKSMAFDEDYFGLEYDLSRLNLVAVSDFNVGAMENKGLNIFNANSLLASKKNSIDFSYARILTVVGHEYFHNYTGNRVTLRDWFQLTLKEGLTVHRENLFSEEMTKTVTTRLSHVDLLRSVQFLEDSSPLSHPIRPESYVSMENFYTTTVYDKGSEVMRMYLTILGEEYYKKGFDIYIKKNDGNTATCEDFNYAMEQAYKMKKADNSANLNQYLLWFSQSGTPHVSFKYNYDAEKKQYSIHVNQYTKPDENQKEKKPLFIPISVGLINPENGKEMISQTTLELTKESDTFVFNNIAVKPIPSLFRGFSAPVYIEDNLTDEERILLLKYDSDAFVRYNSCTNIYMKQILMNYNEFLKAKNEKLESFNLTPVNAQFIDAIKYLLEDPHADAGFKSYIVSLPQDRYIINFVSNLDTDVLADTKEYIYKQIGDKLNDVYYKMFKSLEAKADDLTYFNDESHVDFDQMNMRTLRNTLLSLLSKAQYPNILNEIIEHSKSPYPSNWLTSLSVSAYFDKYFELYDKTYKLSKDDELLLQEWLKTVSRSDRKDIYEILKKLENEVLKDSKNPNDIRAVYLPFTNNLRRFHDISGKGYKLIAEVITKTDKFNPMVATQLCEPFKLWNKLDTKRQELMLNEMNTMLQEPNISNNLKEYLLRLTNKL

[18] = molecular target: Dual specificity tyrosine-phosphorylation-regulated kinase 1A (Rattus norvegicus, UniProt Q63470); assay type: biochemical, Homo sapiens

Sequence of Nucleotide-binding oligomerization domain-containing protein 2 (Q9HC29 whole entry, the tested form may be a part): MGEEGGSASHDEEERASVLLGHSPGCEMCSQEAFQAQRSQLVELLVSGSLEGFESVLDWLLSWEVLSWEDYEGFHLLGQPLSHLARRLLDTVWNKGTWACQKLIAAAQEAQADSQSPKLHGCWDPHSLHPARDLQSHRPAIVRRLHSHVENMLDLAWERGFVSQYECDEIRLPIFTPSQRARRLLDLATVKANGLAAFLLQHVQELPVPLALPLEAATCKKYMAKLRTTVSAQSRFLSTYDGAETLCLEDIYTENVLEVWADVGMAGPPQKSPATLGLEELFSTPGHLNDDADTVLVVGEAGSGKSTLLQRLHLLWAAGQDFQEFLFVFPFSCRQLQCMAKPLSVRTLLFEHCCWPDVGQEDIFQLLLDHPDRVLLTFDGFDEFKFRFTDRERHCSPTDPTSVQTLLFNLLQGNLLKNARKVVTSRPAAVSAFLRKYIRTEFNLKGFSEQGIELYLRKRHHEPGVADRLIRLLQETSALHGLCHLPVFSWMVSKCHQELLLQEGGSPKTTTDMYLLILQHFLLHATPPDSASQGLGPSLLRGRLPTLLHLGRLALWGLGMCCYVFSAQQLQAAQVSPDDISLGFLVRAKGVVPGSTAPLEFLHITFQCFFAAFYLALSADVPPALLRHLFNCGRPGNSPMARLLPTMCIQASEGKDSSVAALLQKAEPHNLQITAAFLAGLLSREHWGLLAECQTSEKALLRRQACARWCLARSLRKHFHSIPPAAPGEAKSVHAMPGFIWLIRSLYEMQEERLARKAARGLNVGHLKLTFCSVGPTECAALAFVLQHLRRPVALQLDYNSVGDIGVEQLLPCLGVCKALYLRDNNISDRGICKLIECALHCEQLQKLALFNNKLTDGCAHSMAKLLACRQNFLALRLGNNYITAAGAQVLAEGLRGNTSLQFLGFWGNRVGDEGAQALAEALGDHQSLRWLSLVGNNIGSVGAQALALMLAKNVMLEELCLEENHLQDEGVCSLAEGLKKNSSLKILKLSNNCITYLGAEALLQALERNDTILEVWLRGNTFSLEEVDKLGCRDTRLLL
Sequence of DNA dC->dU-editing enzyme APOBEC-3A (P31941 whole entry): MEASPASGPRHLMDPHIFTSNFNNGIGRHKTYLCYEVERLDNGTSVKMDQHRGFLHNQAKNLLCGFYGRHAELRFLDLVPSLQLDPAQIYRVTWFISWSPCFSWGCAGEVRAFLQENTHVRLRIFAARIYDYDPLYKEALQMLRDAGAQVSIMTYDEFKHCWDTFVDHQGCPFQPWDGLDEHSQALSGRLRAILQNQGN
Sequence of DNA dC->dU-editing enzyme APOBEC-3G (Q9HC16 whole entry): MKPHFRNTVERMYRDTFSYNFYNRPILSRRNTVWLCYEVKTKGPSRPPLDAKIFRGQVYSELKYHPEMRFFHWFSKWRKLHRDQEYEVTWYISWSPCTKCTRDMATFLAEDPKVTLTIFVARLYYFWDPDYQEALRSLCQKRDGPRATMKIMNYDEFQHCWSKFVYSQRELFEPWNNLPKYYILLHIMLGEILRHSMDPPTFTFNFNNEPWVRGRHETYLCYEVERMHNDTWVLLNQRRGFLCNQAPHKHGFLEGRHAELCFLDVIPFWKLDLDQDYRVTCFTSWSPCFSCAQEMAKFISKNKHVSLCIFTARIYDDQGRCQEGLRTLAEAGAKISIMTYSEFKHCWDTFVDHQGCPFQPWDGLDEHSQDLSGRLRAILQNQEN

SMILES: COc1ccc(-c2csc3nc(-c4cccnc4)nc(N4CCC(C(N)=O)CC4)c23)cc1OC
- IC50 [1]: 43.7 µM (inactive)

SMILES: Cc1ccc(-c2nn3c(C)nnc3c3ccccc23)cc1S(=O)(=O)NCc1ccco1
- IC50 [1]: > 80 µM (inactive)
- IC50 [2]: 15.2 µM (active)
- CC50 (Vero): 3.28 µM (active)

SMILES: O=C(O)CCSc1ncnc2sc(-c3ccccc3)cc12
- EC50 [3]: 4.36 µM (active)
- EC50 (HEK293 [4]): 7.39 µM (active)
- IC50 (HEK293 [5]): 1.54 µM (active)
- EC50 [6]: 9.35 µM (active)
- EC50 [7]: 0.643 µM (active)
- EC50 [8]: 4.68 µM (active)
- IC50 (HEK293 [9]): > 20 µM (inactive)
- EC50 [10]: 4.19 µM (active)
- IC50 (HEK293 [11]): 3.59 µM (active)
- IC50 (HEK293 [12]): > 20 µM (inactive)
- IC50 [1]: > 80 µM (inactive)

SMILES: CC(=O)Nc1nnc(SCc2ccc(C(=O)Nc3ccccc3F)cc2)s1
- IC50 [13]: 5.85 µM (active)
- IC50 [14]: 6.06 µM (active)

SMILES: Cn1c(SCC(=O)Nc2ccc3c(c2)oc2ccccc23)nnc1-c1ccccc1
- IC50 (Estrogen receptor): > 50 µM (not active)
- IC50 [13]: 5.4 µM (active)
- IC50 [14]: 6.7 µM (active)

SMILES: C[N+]1(CCCCCCC(=O)C=NO)CCCCCC1
- IC50 [13]: 4.03 µM (active)
- IC50 [14]: 3.9 µM (active)

SMILES: COc1cc(NC(=O)c2cc3ccccc3cc2O)c(OC)cc1Cl
- EC50 (HEK293 [4]): 4.15 µM (active)
- IC50 (HEK293 [5]): > 20 µM (inactive)
- IC50 (HEK293 [9]): 14 µM (active)
- EC50 [10]: 5.66 µM (active)
- IC50 (HEK293 [11]): 4.06 µM (inactive)
- IC50 (HEK293 [12]): > 20 µM (inactive)
- AC50 [15]: 0.612 µM (active)
- AC50 (INS1): 4.03 µM (active)

SMILES: CC1(C)Oc2ccc3ccc(=O)oc3c2C(/C=N/CCO)=C1O
- IC50 [13]: 2.47 µM (active)
- IC50 [14]: 6.83 µM (active)

SMILES: O=C(Nc1ccc2nn(-c3ccccc3)nc2c1)c1ccc2c(c1)OCCO2
- EC50 (HEK293 [4]): > 20 µM (inactive)
- IC50 (HEK293 [5]): 5.31 µM (active)
- IC50 (HEK293 [9]): > 20 µM (inactive)
- EC50 [16]: > 20 µM (not active)
- EC50 [10]: > 20 µM (inactive)
- IC50 (HEK293 [11]): 8.39 µM (active)
- IC50 (HEK293 [12]): > 20 µM (inactive)
- EC50 [17]: > 20 µM (not active)

SMILES: COC(=O)Cc1cc(=O)oc2cc(O)ccc12
- IC50 (Aminopeptidase N): 36.6 µM (active)

SMILES: C/C(=N\Nc1nc(Nc2ccccc2)nc(N2CCOCC2)n1)c1cccs1
- IC50 [1]: > 80 µM (inactive)

SMILES: COc1ccc2cc3cc(C(=O)NCC4CCCO4)oc3nc2c1 (centres undefined)
- IC50 (Aminopeptidase N): 79.3 µM (active)
- AC50 [18]: 7.86 µM (active)
